Read-outs that look alike come from different tables or passages of the source.
How the values were obtained:
[1] = test system: T. gondii RH strain (RH-Tub-eYFP) tachyzoites; test: microbe, parasite or virus in culture; assay type: cell-based, Toxoplasma gondii; conditions: 72 h; for percent parasite growth at 2 µg/mL: Toxoplasma gondii
[2] = test system: P. falciparum 3D7 parasites; test: P. falciparum growth inhibition assay, 1-cycle (72 h treatment), SYBR DNA staining (library screen at 2 μg/mL and dose-response); assay type: cell-based, Plasmodium falciparum
[3] = test system: P. falciparum 3D7 parasites; test: P. falciparum growth inhibition assay, 2-cycle (120 h treatment), delayed-death screen and dose-response; assay type: cell-based, Plasmodium falciparum
[4] = T. gondii, parasite screen 2 μg/mL, % growth, replicate 1
[5] = T. gondii, parasite screen 2 μg/mL, % growth, replicate 2
[6] = P. falciparum, 72 h, parasite screen 2 μg/mL, % growth, replicate 1
[7] = P. falciparum, 72 h, parasite screen 2 μg/mL, % growth, replicate 2
[8] = P. falciparum, 120 h, parasite screen 2 μg/mL, % growth, replicate 1
[9] = P. falciparum, 120 h, parasite screen 2 μg/mL, % growth, replicate 2
[10] = T. gondii, screen at 2 μg/mL, replicate 1, read-out: Tg_72h_%Growth_Rep1
[11] = T. gondii, screen at 2 μg/mL, replicate 2, read-out: Tg_72h_%Growth_Rep2
[12] = T. gondii, 2 μg/mL, values are growth (% of control)

CC(/C=C/[C@H](O)[C@@H](C)/C=C/C(=O)O)=C\C[C@H]1O[C@]2(CC[C@@H]1C)CC[C@@](CCC(C)C)(OC(=O)CCC(=O)O)[C@H](/C=C/C(C)=C/C(=O)O)O2 [Reveromycin C]
Tg_72h_%Growth_Rep1 [1, 4]: 140.65%
Tg_72h_%Growth_Rep2 [1, 5]: 73.99%
Pf_72h_%Growth_Rep1 [2, 6]: 86.43%
Pf_72h_%Growth_Rep2 [2, 7]: 70.33%
Pf_120h_%Growth_Rep1 [3, 8]: 71.01%
Pf_120h_%Growth_Rep2 [3, 9]: 60.10%

C=CC(C)(C)[C@@]12C[C@H]3C(=O)N[C@H](CC(C)C)C(=O)N3[C@H]1N(C(C)=O)c1ccccc12 [Verrucofortine]
percent parasite growth at 2 µg/mL [1, 10]: 90.9%
percent parasite growth at 2 µg/mL [1, 11]: 99.7%
activity at 2 µg/mL ([2]; Plasmodium falciparum, 3D7, P. falciparum, 72 h, screen at 2 μg/mL, replicate 1, read-out: Pf_72h_%Growth_Rep1): 70%
activity at 2 µg/mL ([2]; Plasmodium falciparum, 3D7, P. falciparum, 72 h, screen at 2 μg/mL, replicate 2, read-out: Pf_72h_%Growth_Rep2): 83.7%
activity at 2 µg/mL ([3]; Plasmodium falciparum, 3D7, P. falciparum, 120 h, screen at 2 μg/mL, replicate 1, read-out: Pf_120h_%Growth_Rep1): 152%
activity at 2 µg/mL ([3]; Plasmodium falciparum, 3D7, P. falciparum, 120 h, screen at 2 μg/mL, replicate 2, read-out: Pf_120h_%Growth_Rep2): 81.9%

Cc1c2ccocc-2oc1=O [BIA-K1791]
Tg_72h_%Growth_Rep1 ([1]; T. gondii RH, library screen at 2 μg/mL, % growth, replicate 1): 112.84%
Tg_72h_%Growth_Rep2 ([1]; T. gondii RH, library screen at 2 μg/mL, % growth, replicate 2): 99.08%
Pf_72h_%Growth_Rep1 ([2]; P. falciparum 3D7, 72 h, library screen at 2 μg/mL, % growth, replicate 1): 78.18%
Pf_72h_%Growth_Rep2 ([2]; P. falciparum 3D7, 72 h, library screen at 2 μg/mL, % growth, replicate 2): 121.18%
Pf_120h_%Growth_Rep1 ([3]; P. falciparum 3D7, 120 h, library screen at 2 μg/mL, % growth, replicate 1): 94.18%
Pf_120h_%Growth_Rep2 ([3]; P. falciparum 3D7, 120 h, library screen at 2 μg/mL, % growth, replicate 2): 112.81%

CC[C@H]1CCC[C@H](O)[C@@H](C)C(=O)C2=C[C@@H]3[C@@H](C=C[C@@H]4C[C@@H](O)C[C@@H]34)[C@@H]2CC(=O)O1 [Spinosyn A aglycone]
Tg_72h_%Growth_Rep1 [1, 4]: 107.96%
Tg_72h_%Growth_Rep2 [1, 5]: 78.11%
IC50 ([2]; 3D7, 72 h treatment, mean ± S.D., n ≥ 3, read-out: IC50 (μM), P. falciparum): > 1 µM
Pf_72h_%Growth_Rep1 [2, 6]: 91.52%
Pf_72h_%Growth_Rep2 [2, 7]: 38.04%
Screen (P. falciparum) ([2]; library screen at 2 μg/mL, 3D7, 72 h, DD from the 120 h timepoint): I
Pf_120h_%Growth_Rep1 [3, 8]: 95.52%
Pf_120h_%Growth_Rep2 [3, 9]: 13.75%

CC(C)[C@@H]1NC(=O)[C@@H]2CCCN2C1=O [Cyclo(L-Pro-L-Val)]
Tg_72h_%Growth_Rep1 ([1]; T. gondii, screen at 2 μg/mL, replicate 1): 147.92%
Tg_72h_%Growth_Rep2 ([1]; T. gondii, screen at 2 μg/mL, replicate 2): 100.59%
Pf_72h_%Growth_Rep1 ([2]; P. falciparum, 72 h, screen at 2 μg/mL, replicate 1): 85.07%
Pf_72h_%Growth_Rep2 ([2]; P. falciparum, 72 h, screen at 2 μg/mL, replicate 2): 82.22%
Pf_120h_%Growth_Rep1 ([3]; P. falciparum, 120 h, screen at 2 μg/mL, replicate 1): 101.90%
Pf_120h_%Growth_Rep2 ([3]; P. falciparum, 120 h, screen at 2 μg/mL, replicate 2): 92.75%

C[C@H]1C/C=C/[C@H]2[C@@H]3O[C@]3(C)[C@@H](C)[C@H]3[C@H](Cc4ccccc4)NC(=O)[C@]32OC(=O)O/C=C/[C@@](C)(O)C1=O [Cytochalasin E]
percent parasite growth at 2 µg/mL [1, 10]: 89.3%
percent parasite growth at 2 µg/mL [1, 11]: 102%
activity at 2 µg/mL ([2]; Plasmodium falciparum, 3D7, 72 h, P. falciparum, 72 h, screen at 2 μg/mL, replicate 1, read-out: Pf_72h_%Growth_Rep1): 64%
activity at 2 µg/mL ([2]; Plasmodium falciparum, 3D7, 72 h, P. falciparum, 72 h, screen at 2 μg/mL, replicate 2, read-out: Pf_72h_%Growth_Rep2): 54.5%
activity at 2 µg/mL ([3]; Plasmodium falciparum, 3D7, 120 h, P. falciparum, 120 h, screen at 2 μg/mL, replicate 1, read-out: Pf_120h_%Growth_Rep1): 53.6%
activity at 2 µg/mL ([3]; Plasmodium falciparum, 3D7, 120 h, P. falciparum, 120 h, screen at 2 μg/mL, replicate 2, read-out: Pf_120h_%Growth_Rep2): 53.8%

COc1cc(O)c2c(c1)/C=C/C[C@H](O)[C@H](O)C(=O)/C=C/C[C@H](C)OC2=O [BIA-O1897]
Tg_72h_%Growth_Rep1 ([1]; T. gondii, parasite screen at 2 μg/mL, % growth, replicate 1): 58.83%
Tg_72h_%Growth_Rep2 ([1]; T. gondii, parasite screen at 2 μg/mL, % growth, replicate 2): 79.20%
Pf_72h_%Growth_Rep1 ([2]; P. falciparum 3D7, 72 h, parasite screen at 2 μg/mL, % growth, replicate 1): 68.65%
Pf_72h_%Growth_Rep2 ([2]; P. falciparum 3D7, 72 h, parasite screen at 2 μg/mL, % growth, replicate 2): 68.31%
Pf_120h_%Growth_Rep1 ([3]; P. falciparum 3D7, 120 h, parasite screen at 2 μg/mL, % growth, replicate 1): 71.81%
Pf_120h_%Growth_Rep2 ([3]; P. falciparum 3D7, 120 h, parasite screen at 2 μg/mL, % growth, replicate 2): 72.01%

C=C1CC[C@H]2C(C)(C)CCC[C@]2(C)[C@H]1C[C@@]12C[C@H]3C(=O)N4CCC[C@H]4C(=O)N3[C@@H]1Nc1ccccc12 [Drimentine C]
percent parasite growth at 2 µg/mL ([1]; library screen at 2 μg/mL, % growth, replicate 1, read-out: Tg_72h_%Growth_Rep1): 91.6%
percent parasite growth at 2 µg/mL ([1]; library screen at 2 μg/mL, % growth, replicate 2, read-out: Tg_72h_%Growth_Rep2): 73.3%
activity at 2 µg/mL ([2]; Plasmodium falciparum, 3D7, library screen at 2 μg/mL, 72 h, % growth, replicate 1, read-out: Pf_72h_%Growth_Rep1): 85.2%
activity at 2 µg/mL ([2]; Plasmodium falciparum, 3D7, library screen at 2 μg/mL, 72 h, % growth, replicate 2, read-out: Pf_72h_%Growth_Rep2): 87.9%
activity at 2 µg/mL ([3]; Plasmodium falciparum, 3D7, library screen at 2 μg/mL, 120 h, % growth, replicate 1, read-out: Pf_120h_%Growth_Rep1): 78.4%
activity at 2 µg/mL ([3]; Plasmodium falciparum, 3D7, library screen at 2 μg/mL, 120 h, % growth, replicate 2, read-out: Pf_120h_%Growth_Rep2): 103%

CO[C@@H]1[C@@H](OC(N)=O)[C@@H](O)[C@H](Oc2ccc3c(O)c(NC(=O)c4ccc(O)c(CC=C(C)C)c4)c(=O)oc3c2C)OC1(C)C [Novobiocin, reference compound]
Mean ([1]; T. gondii, 2 μg/mL, mean of both replicates, growth (% of control)): 51.41
Replicate 1 [1, 12]: 9.17
Replicate 2 [1, 12]: 93.65
activity at 2 µg/mL ([2]; Plasmodium falciparum, 3D7, 72 h, P. falciparum, 2 μg/mL, 72 h; read-out: 1) Growth (%) at 72 h): 81.4%
3) Fold change (72 h/120 h) [3]: 5.7
activity at 2 µg/mL ([3]; Plasmodium falciparum, 3D7, 120 h, P. falciparum, 2 μg/mL, 120 h; read-out: 2) Growth (%) at 120 h): 14.2%
